Where two headings read alike, the source gives them in different places.
Assay: in vitro
Assay type: in vitro ADME, human
Description: For several compounds only human liver microsomal stability was tested. […] The microsomal assays were carried out with and without the addition of NADPH at a final concentration of 1 mM. For negative control samples, NADPH reagent was not added. […] Note that compounds undergo only Phase I metabolism in liver microsomes.

[1] = human liver microsomes 0.5 mg/mL, with NADPH, compound 0.5 μM, 37° C., read-out: Human Liver Microsomal Stability t1/2
[2] = human liver microsomes 0.5 mg/mL, with NADPH, compound 0.5 μM, read-out: Human Liver Microsomal Stability CLint (uL/min/mg liver) (converted)
[3] = human liver microsomes, no NADPH, compound 0.5 μM

SMILES | half-life [1] | microsomal CLint [2] | Human Liver Microsomal Stability no NADPH, % remain 1 h [3] | Comments: production of GNX (ganaxolone) in human liver microsomes (human liver microsomes) | Comments: production of GNX (ganaxolone) in human liver microsomes | half-life (human, microsomes) | microsomal CLint (human, microsomes) | Human Liver Microsomal Stability no NADPH, % remain 1 h (human, microsomes)
CC(=O)[C@H]1CC[C@H]2[C@@H]3CC[C@H]4C[C@](C)(CC(=O)COC(=O)NCCN(C)C)CC[C@]4(C)[C@H]3CC[C@]12C [Compound 217] | 5.27 h | 4.39 µL/min/mg | 99.7% |  |  |  |  | 
CC(=O)[C@H]1CC[C@H]2[C@@H]3CC[C@H]4C[C@](C)(OC(=O)COC(=O)C(C)(C)OC(=O)CN(C)CCO)CC[C@]4(C)[C@H]3CC[C@]12C [Compound 233] | 0.0883 h | 261 µL/min/mg | 5% |  |  |  |  | 
CC(=O)[C@H]1CC[C@H]2[C@@H]3CC[C@H]4C[C@](C)(OC(=O)CSC(=N)N)CC[C@]4(C)[C@H]3CC[C@]12C [Compound 304] | 2.88 h | 8.03 µL/min/mg | 83.8% | In human small amount of GNX produced |  |  |  | 
CC(=O)[C@H]1CC[C@H]2[C@@H]3CC[C@H]4C[C@](C)(OC(=O)CSCCOC(=O)CN5CCOCC5)CC[C@]4(C)[C@H]3CC[C@]12C [Compound 303] | 0.0413 h | 599 µL/min/mg | 90% | In human GNX not produced |  |  |  | 
CC(=O)[C@H]1CC[C@H]2[C@@H]3CC[C@H]4C[C@](C)(OC(=O)CC(C)(C)C(=O)NCCN(C)C)CC[C@]4(C)[C@H]3CC[C@]12C [Compound 412] | 4.55 h | 5.07 µL/min/mg | 94% | In human small amount of GNX produced |  |  |  | 
CC(=O)[C@H]1CC[C@H]2[C@@H]3CC[C@H]4C[C@](C)(OC(=O)CNCC(=O)O)CC[C@]4(C)[C@H]3CC[C@]12C [Compound 124] | 8.87 h | 2.61 µL/min/mg | 99% | In human small amount of GNX produced |  |  |  | 
COCCOCCOCC(=O)OCC(=O)O[C@]1(C)CC[C@@]2(C)[C@@H](CC[C@@H]3[C@@H]2CC[C@]2(C)[C@@H](C(C)=O)CC[C@@H]32)C1 [Compound 205] | 0.0597 h | 387 µL/min/mg | 5.7% |  |  |  |  | 
CC(=O)[C@H]1CC[C@H]2[C@@H]3CC[C@H]4C[C@](C)(OC(=O)CCCCN)CC[C@]4(C)[C@H]3CC[C@]12C [Compound 418] | 7.52 h | 3.08 µL/min/mg | 99% | In human no GNX produced |  |  |  | 
CC(=O)[C@H]1CC[C@H]2[C@@H]3CC[C@H]4C[C@](C)(OC(=O)COC(=O)C(C)(C)OC(=O)CN(C)C)CC[C@]4(C)[C@H]3CC[C@]12C [Compound 227] |  |  |  |  | In human no GNX produced | 0.398 h | 58.1 µL/min/mg | 71%
CC(=O)[C@H]1CC[C@H]2[C@@H]3CC[C@H]4C[C@](C)(OC(=O)CC(C)(C)C(=O)OCCN(C)C)CC[C@]4(C)[C@H]3CC[C@]12C [Compound 413] | 2.1 h | 11 µL/min/mg | 89% | In human no GNX produced |  |  |  | 
CC(=O)OCCCN(CCCOC(C)=O)CC(=O)OC(C)(C)C(=O)OCC(=O)O[C@]1(C)CC[C@@]2(C)[C@@H](CC[C@@H]3[C@@H]2CC[C@]2(C)[C@@H](C(C)=O)CC[C@@H]32)C1 [Compound 237] |  |  |  |  |  | 0.0863 h | 267 µL/min/mg | <1%
